According to US10172821B2, “Histone deacetylase inhibitors” (President & Fellows of Harvard College, priority 2006, dated 2019):

Assays:
[1] = Degradation of SAHP in serum; format: in vitro ADME
Protocol: In less than 15 minutes, SAHP is completely degraded.
In less than 2 minutes, SAHP is completely degraded into phenol and the corresponding carboxylic acid.

[2] = test system: Transformed lymphocytes derived from involved skin of IL-7 transgenic mice (lymphoproliferative disease similar to human cutaneous T-cell lymphoma); assay: Topical treatment of mice with lymphoproliferative skin disease (CTCL model), histopathologic examination; format: in vivo; conditions: daily, fourteen days of therapy, versus vehicle control, FIG. 14
Source text: FIG. 14. Interleukin-7 is a growth factor for T-cell development, in particular the gamma-delta subset. Transgenic mice overexpressing IL-7 in keratinocytes were developed by the laboratories of Thomas Kupper and Benjamin Rich, using a tissue-specific keratin-14 promoter element. These mice have been reported to develop a characteristic lymphoproliferative skin disease grossly and histologically similar to human cutaneous T-cell lymphoma (CTCL). Transformed lymphocytes derived from involved skin were passaged ex vivo and injected into syngeneic (non-transgenic) mice. After fourteen days, these mice develop a homogeneous lymphoproliferative disease. Two cohorts of five mice were included in a prospective study of topical, daily suberoyl hydroxamic acid phenyl ester (SAHP, also known as SHAPE) versus vehicle control. After fourteen days of therapy, mice were sacrificed and the treated region was dissected for histopathologic examination.

[3] = test system: acetylated histones (AcH3K18); assay: Pharmacodynamic effect by immunohistochemical staining for acetylated histones; format: in vivo; conditions: SAHP-treated mice compared to vehicle treated controls; FIG. 15

time until SAHP is completely degraded in serum ([1]; FIG. 6): less than 15 minutes
time until SAHP is completely degraded into phenol and the corresponding carboxylic acid ([1]; more detailed study, FIG. 7): less than 2 minutes
SMILES: O=C(CCCCCCC(=O)Oc1ccccc1)NO [SAHP, suberoyl hydroxamic acid phenyl ester]
lymphomatous infiltration within the treated window (hematoxylin-eosin staining) [2]: marked reduction in lymphomatous infiltration
AcH3K18 staining (histone hyperacetylation) in treated skin [3]: hyperacetylated histone staining at the margin of compound treatment, with absent nuclear staining in the region of drug response
